Patent US8455537B2, “Estrogen receptor modulators and uses thereof” (University of Medicine and Dentistry of New Jersey, priority 2006, dated 2013)

Tests used:
[1] = molecular target: T1, estrogen receptor alpha (ERα) (Homo sapiens, UniProt P03372); experiment: Gel filtration displacement assay, competitive binding with 3H-estradiol; details: test compound 10 μM; 25 nM 3H-estradiol; 10 ng purified full-length ERα; no cold ligand = 100%; lower = stronger binding
T1 construct: 10 ng of purified full-length ERα (Active Motif, Carlsbad, Calif.); purchased Active Motif, Carlsbad, Calif
T1 sequence (P03372 1-595): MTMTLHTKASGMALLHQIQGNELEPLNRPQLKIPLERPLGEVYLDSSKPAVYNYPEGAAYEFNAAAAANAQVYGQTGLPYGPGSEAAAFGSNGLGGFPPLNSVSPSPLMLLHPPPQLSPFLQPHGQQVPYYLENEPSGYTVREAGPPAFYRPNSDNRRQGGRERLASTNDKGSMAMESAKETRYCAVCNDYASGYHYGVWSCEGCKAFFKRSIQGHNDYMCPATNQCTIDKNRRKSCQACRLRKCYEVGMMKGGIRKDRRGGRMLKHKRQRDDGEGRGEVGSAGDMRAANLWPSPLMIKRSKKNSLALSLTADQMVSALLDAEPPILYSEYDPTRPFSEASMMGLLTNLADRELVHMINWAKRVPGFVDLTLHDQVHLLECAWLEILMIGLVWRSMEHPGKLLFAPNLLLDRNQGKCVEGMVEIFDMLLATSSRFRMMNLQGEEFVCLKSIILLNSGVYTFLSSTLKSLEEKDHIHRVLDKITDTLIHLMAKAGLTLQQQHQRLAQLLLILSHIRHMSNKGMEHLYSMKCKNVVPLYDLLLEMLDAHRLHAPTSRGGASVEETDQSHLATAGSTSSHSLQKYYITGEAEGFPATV
Protocol: A gel filtration displacement assay for estrogen receptor alpha (ERα) was employed to assess competitive binding by ER antagonists among the test compounds in 10 μM. ER binding assays were conducted in duplicate in 50 mM Tris-HCl, pH7.5, 1 mM EDTA, 20% Glycerol and 1 mM DTT buffer. Radioligands that were used include [6, 7-^3H] estradiol (specific activity 44 Ci/mmol, Amersham Biosciences).
Following 1-hour incubation, assays were terminated by filtration through Whatman GF/B filters. […] Counts were normalized to the negative controls (no cold ligand) as the percentage of bound radiolabeled-estradiol remaining after separating bound radioligand from free radioligand. The negative controls were taken as 100% bound radioligand remaining. […] Results are reported as the average values of three independent experiments in duplicate. Error bars represent standard deviation of the three determinations (FIG. 2).

[2] = molecular target: T2, ERα (Homo sapiens, UniProt P03372); experiment: NR peptide ERα ELISA kit, percentage of ER activation; assay type: biochemical; details: 25 μM sample; normalized to vehicle control (DMSO) = 100%; over 100% agonist, below 100% antagonist; MCF-7 nuclear extract as ER source
T2 construct: presence of both ER and PR in the MCF-7 nuclear extract; (kit); host or cells: MCF-7 nuclear extract
T2 sequence (P03372 1-595): T1 sequence (P03372 1-595)
Text: Relative units of light intensity for each test compound were normalized to the vehicle control (DMSO) and then expressed in percentage of ER activation. […] The data reported here represent results of three independent determinations in duplicate. Error bars represent the standard deviation of the three determinations.

| SMILES | percentage of bound radiolabeled-estradiol remaining [1] [%] | percentage of ER activation [2] [%] |
| --- | --- | --- |
| CCC(=O)C1=C(O)CCC(c2cccc(Oc3ccccc3)c2)C1=O (stereo not shown) [Compound A] | 65.9 | 53.1 |
| O=C1c2ccccc2C(=O)N1CN(C(=O)c1ccccc1)c1ccc(O)cc1 [Compound B] | 89.8 | 69 |
| CC#C[C@]1(O)CC[C@H]2[C@@H]3CCC4=CC(=O)CCC4=C3[C@@H](c3ccc(N(C)C)cc3)C[C@@]21C [mifepristone, reference compound] | > 100 | 51.7 |
| C[C@]12CC[C@@H]3c4ccc(O)c(O)c4CC[C@H]3[C@@H]1CC[C@@H]2O [4-hydroxy estradiol] | – | 196.3 |
